{"source": "paper PMC10290117", "about": "“Molecular mechanism of phosphopeptide neoantigen immunogenicity” (Nature Communications, 2023)"}
{"system": "TCR27-AKD10R3 cells", "assay": "X-scan (peptide scan), EGFP reporter effector cells", "type": "cell-based, murine", "conditions": "Fig. 1c source data, HLA B*07, T2 cells pulsed with 25 μg peptide per 1 × 10^6 cells, 2 h, 37 °C, effector cells 2:1 overnight, mean value of triplicate", "experimental": "Tap-deficient T2 (174x CEM.T2) HLA-B*0702+ cells were received from Dr. Victor Engelhard. These and the commercially purchased Tap-deficient T2 (174 x CEM.T2) cells (ATCC CRL 1991) were maintained in RPMI 1640 (BioConcept) supplemented with 10% fetal calf serum (FCS, HyClone), 2mM L-glutamine and 1% Penicillin/Streptomycin at 37 °C and 5% CO2. The EGFP reporter cell line was based on a murine TCR negative thymoma cell line derived from strain BW5417 (ATCC®TIB-47TM) and was stably transduced with (a) TCR27 in which the human constant regions were replaced with those of mouse, (b) a chimeric mouse/human CD8, and (c) an EGFP reporter construct linked to a minimal IL-2 promoter comprising three NFAT-binding sites (3xNFAT)[44]. The transduced cells were termed TCR27-AKD10R3 cells and will be called the effector cells. Mouse cell lines were cultured in SF-IMDM (BioConcept) supplemented with 3% FCS, 1% Penicillin/Streptomycin, and 50 μM beta-mercaptoethanol at 37 °C and 10% CO2.\nPeptides were dissolved in dimethyl sulfoxide (DMSO) at concentrations of 2–20 mg/mL, aliquoted and stored at −80 °C. Peptide-pulsing experiments were performed by pre-incubating T2 cells with 25 μg peptide per 1 × 10^6 cells in PBS for 2 h at 37 °C and 5% CO2, washed three times to remove unbound peptides and used for further downstream analysis. Peptide-pulsed T2 cells were incubated with effector cells in a 2:1 ratio overnight in SF-IMDM at 37 °C and 10% CO2, washed twice and stained with anti-mouse TCR-® chain clone H57-597 (BD Pharmingen #560656, 1:500) for 30 min at RT. Cells were washed twice before FACS-analysis using a BD FACS Canto II with System software v2.0. Data analysis was performed using FlowJo V10 Software. Binding affinity between each peptide and HLA-B*0702 was determined using an Alpha assay. It is a homogenous, proximity-based assay for detection of peptides binding to HLA class I molecules using a conformation-dependent anti-HLA class I antibody, W6/32, as one tag and a biotinylated recombinant HLA class I molecule as the other tag, and a proximity-based signal was generated through the luminescent oxygen channeling immunoassay technology (PerkinElmer) as described.\nTo identify the off-target peptides we have utilized an approach that was developed previously. In brief, we investigated which amino acids at each position in pMLL747–755 enable TCR interaction by sequentially replacing every amino acid position outside of the anchor positions 2 and 9 with all 19 alternative amino acids, resulting in 134 peptides (133 altered peptides plus original epitope). Each peptide was individually evaluated using cell-based in vitro cytotoxicity assay. To represent the TCR recognition kernel, we have defined Position Weight Matrices (PWMs) for each assay by assigning normalized measurements to each of the 20 amino acids in each position. To predict potential off-target peptides, we applied an algorithm projecting the PWM-defined kernel into the human proteome, scoring TCR27 recognition for the predicted HLA-B^*0702 binding 9-mer peptides. Of the 11 peptides with highest predicted cross-reactivity scores, we confirmed that only 2, […] and pDOT1L998–1006, strongly activated the TCR27-expressing effector T cells.", "units": {"Percentage GFP positive from TCR+ cells": "%"}}
{"substance": "APRsPSHSM [single-residue substitution of pMLL747–755, Pos 1]", "Percentage GFP positive from TCR+ cells": 1.5}
{"substance": "CPRsPSHSM [single-residue substitution of pMLL747–755, Pos 1]", "Percentage GFP positive from TCR+ cells": 1.3}
{"substance": "DPRsPSHSM [single-residue substitution of pMLL747–755, Pos 1]", "Percentage GFP positive from TCR+ cells": 1.14}
{"substance": "EPAsPSHSM [single-residue substitution of pMLL747–755, Pos 3]", "Percentage GFP positive from TCR+ cells": 14.3}
{"substance": "EPCsPSHSM [single-residue substitution of pMLL747–755, Pos 3]", "Percentage GFP positive from TCR+ cells": 9.53}
{"substance": "EPDsPSHSM [single-residue substitution of pMLL747–755, Pos 3]", "Percentage GFP positive from TCR+ cells": 1.12}
{"substance": "EPEsPSHSM [single-residue substitution of pMLL747–755, Pos 3]", "Percentage GFP positive from TCR+ cells": 2.7}
{"substance": "EPFsPSHSM [single-residue substitution of pMLL747–755, Pos 3]", "Percentage GFP positive from TCR+ cells": 1.13}
{"substance": "EPGsPSHSM [single-residue substitution of pMLL747–755, Pos 3]", "Percentage GFP positive from TCR+ cells": 1.47}
{"substance": "EPHsPSHSM [single-residue substitution of pMLL747–755, Pos 3]", "Percentage GFP positive from TCR+ cells": 5.91}
{"substance": "EPIsPSHSM [single-residue substitution of pMLL747–755, Pos 3]", "Percentage GFP positive from TCR+ cells": 1.83}
{"substance": "EPKsPSHSM [single-residue substitution of pMLL747–755, Pos 3]", "Percentage GFP positive from TCR+ cells": 10.3}
{"substance": "EPLsPSHSM [single-residue substitution of pMLL747–755, Pos 3]", "Percentage GFP positive from TCR+ cells": 1.35}
{"substance": "EPMsPSHSM [single-residue substitution of pMLL747–755, Pos 3]", "Percentage GFP positive from TCR+ cells": 1.48}
{"substance": "EPNsPSHSM [single-residue substitution of pMLL747–755, Pos 3]", "Percentage GFP positive from TCR+ cells": 5}
{"substance": "EPPsPSHSM [single-residue substitution of pMLL747–755, Pos 3]", "Percentage GFP positive from TCR+ cells": 1}
{"substance": "EPQsPSHSM [single-residue substitution of pMLL747–755, Pos 3]", "Percentage GFP positive from TCR+ cells": 1.31}
{"substance": "EPRAPSHSM [single-residue substitution of pMLL747–755, Pos 4]", "Percentage GFP positive from TCR+ cells": 0.88}
{"substance": "EPRCPSHSM [pMLL747–755 with cysteine at Pos 4]", "Percentage GFP positive from TCR+ cells": 1.02}
{"substance": "EPRDPSHSM [pMLL747–755 with aspartate at P4]", "Percentage GFP positive from TCR+ cells": 0.92}
{"substance": "EPREPSHSM [pMLL747–755 with glutamate at P4]", "Percentage GFP positive from TCR+ cells": 0.77}
{"substance": "EPRFPSHSM [single-residue substitution of pMLL747–755, Pos 4]", "Percentage GFP positive from TCR+ cells": 0.91}
{"substance": "EPRGPSHSM [single-residue substitution of pMLL747–755, Pos 4]", "Percentage GFP positive from TCR+ cells": 1.01}
{"substance": "EPRHPSHSM [single-residue substitution of pMLL747–755, Pos 4]", "Percentage GFP positive from TCR+ cells": 0.9}
{"substance": "EPRIPSHSM [single-residue substitution of pMLL747–755, Pos 4]", "Percentage GFP positive from TCR+ cells": 0.86}
{"substance": "EPRKPSHSM [single-residue substitution of pMLL747–755, Pos 4]", "Percentage GFP positive from TCR+ cells": 1.03}
{"substance": "EPRLPSHSM [single-residue substitution of pMLL747–755, Pos 4]", "Percentage GFP positive from TCR+ cells": 1.21}
{"substance": "EPRMPSHSM [single-residue substitution of pMLL747–755, Pos 4]", "Percentage GFP positive from TCR+ cells": 1.25}
{"substance": "EPRNPSHSM [single-residue substitution of pMLL747–755, Pos 4]", "Percentage GFP positive from TCR+ cells": 1.07}
{"substance": "EPRPPSHSM [single-residue substitution of pMLL747–755, Pos 4]", "Percentage GFP positive from TCR+ cells": 1.21}
{"substance": "EPRQPSHSM [single-residue substitution of pMLL747–755, Pos 4]", "Percentage GFP positive from TCR+ cells": 1.08}
{"substance": "EPRRPSHSM [single-residue substitution of pMLL747–755, Pos 4]", "Percentage GFP positive from TCR+ cells": 0.98}
{"substance": "EPRTPSHSM [single-residue substitution of pMLL747–755, Pos 4]", "Percentage GFP positive from TCR+ cells": 0.8}
{"substance": "EPRVPSHSM [single-residue substitution of pMLL747–755, Pos 4]", "Percentage GFP positive from TCR+ cells": 0.76}
{"substance": "EPRWPSHSM [single-residue substitution of pMLL747–755, Pos 4]", "Percentage GFP positive from TCR+ cells": 0.96}
{"substance": "EPRYPSHSM [single-residue substitution of pMLL747–755, Pos 4]", "Percentage GFP positive from TCR+ cells": 0.87}
{"substance": "EPRsASHSM [single-residue substitution of pMLL747–755, Pos 5]", "Percentage GFP positive from TCR+ cells": 0.92}
{"substance": "EPRsCSHSM [single-residue substitution of pMLL747–755, Pos 5]", "Percentage GFP positive from TCR+ cells": 0.98}
{"substance": "EPRsDSHSM [single-residue substitution of pMLL747–755, Pos 5]", "Percentage GFP positive from TCR+ cells": 0.95}
{"substance": "EPRsESHSM [single-residue substitution of pMLL747–755, Pos 5]", "Percentage GFP positive from TCR+ cells": 0.97}
{"substance": "EPRsFSHSM [single-residue substitution of pMLL747–755, Pos 5]", "Percentage GFP positive from TCR+ cells": 0.91}
{"substance": "EPRsGSHSM [single-residue substitution of pMLL747–755, Pos 5]", "Percentage GFP positive from TCR+ cells": 0.96}
{"substance": "EPRsHSHSM [single-residue substitution of pMLL747–755, Pos 5]", "Percentage GFP positive from TCR+ cells": 0.93}
{"substance": "EPRsISHSM [single-residue substitution of pMLL747–755, Pos 5]", "Percentage GFP positive from TCR+ cells": 0.81}
{"substance": "EPRsKSHSM [single-residue substitution of pMLL747–755, Pos 5]", "Percentage GFP positive from TCR+ cells": 0.9}
{"substance": "EPRsLSHSM [single-residue substitution of pMLL747–755, Pos 5]", "Percentage GFP positive from TCR+ cells": 0.88}
{"substance": "EPRsMSHSM [single-residue substitution of pMLL747–755, Pos 5]", "Percentage GFP positive from TCR+ cells": 0.97}
{"substance": "EPRsNSHSM [single-residue substitution of pMLL747–755, Pos 5]", "Percentage GFP positive from TCR+ cells": 0.84}
{"substance": "EPRsPAHSM [single-residue substitution of pMLL747–755, Pos 6]", "Percentage GFP positive from TCR+ cells": 1.34}
{"substance": "EPRsPCHSM [single-residue substitution of pMLL747–755, Pos 6]", "Percentage GFP positive from TCR+ cells": 8.54}
